Relative viability data for seven cell lines are collected here from the supplement of paper PMC10307832.

Common to all, as to assay: relative viability (nuclei count vs DMSO), 5 days (fraction); higher = more cells survive
Compound in experiment [1]: CO[C@@H]1[C@H](N(C)C(=O)c2ccccc2)C[C@H]2O[C@]1(C)n1c3ccccc3c3c4c(c5c6ccccc6n2c5c31)C(=O)NC4 [Midostaurin] + CC(C)C[C@H](NC(=O)[C@H](Cc1ccccc1)NC(=O)c1cnccn1)B(O)O [Bortezomib] (partner 0.002 µM)
In short, it runs like this: (§1)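 Relative viability equals treated-well nuclei counts divided by vehicle-well nuclei counts. Counts came from 4× images of lung cancer cell lines grown in 1536-well plates for 5 days after pin-tool dosing on the day after seeding. Dosing used one drug alone or a fixed anchor-drug dose plus five library-drug doses (not always all listed) in √10 steps, and values are medians of duplicate plates.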

Compound in experiment [2]: CO[C@@H]1[C@H](N(C)C(=O)c2ccccc2)C[C@H]2O[C@]1(C)n1c3ccccc3c3c4c(c5c6ccccc6n2c5c31)C(=O)NC4 [Midostaurin] + C[C@@H](Oc1cc(-c2cnn(C3CCNCC3)c2)cnc1N)c1c(Cl)ccc(F)c1Cl [Crizotinib] (partner 1 µM)
In short, it runs like this: as §1

Compound in experiment [3]: COc1cc(-c2nn([C@H]3CC[C@H](N4CCN(C(C)=O)CC4)CC3)c3ncnc(N)c23)ccc1NC(=O)c1cc2ccccc2n1C + CC(C)C[C@H](NC(=O)[C@H](Cc1ccccc1)NC(=O)c1cnccn1)B(O)O [Bortezomib] (partner 0.002 µM)
In short, it runs like this: as §1

Compound in experiment [4]: CO[C@@H]1[C@H](N(C)C(=O)c2ccccc2)C[C@H]2O[C@]1(C)n1c3ccccc3c3c4c(c5c6ccccc6n2c5c31)C(=O)NC4 [Midostaurin] + CC(=O)c1c(C)c2cnc(Nc3ccc(N4CCNCC4)cn3)nc2n(C2CCCC2)c1=O [Palbociclib] (partner 0.5 µM)
In short, it runs like this: as §1

Compound in experiment [5]: COc1cc(-c2nn([C@H]3CC[C@H](N4CCN(C(C)=O)CC4)CC3)c3ncnc(N)c23)ccc1NC(=O)c1cc2ccccc2n1C + CS(=O)(=O)N1CCN(Cc2cc3nc(-c4cccc5[nH]ncc45)nc(N4CCOCC4)c3s2)CC1 [Pictilisib] (partner 1 µM)
In short, it runs like this:
as §1

Turning to RERF-LC-KJ, the relative viability in experiment [1] (first compound 0.01 µM) was determined as 1.16; in experiment [1] (first compound 0.03162 µM), 1.18; in experiment [1] (first compound 0.1 µM), 1.16; in experiment [1] (first compound 0.3162 µM), 1.23; in experiment [2] (first compound 0.01 µM), 0.892; in experiment [2] (first compound 0.03162 µM), 0.764. In addition, the relative viability in experiment [2] (first compound 0.1 µM) was 0.813; in experiment [2] (first compound 0.3162 µM), 0.811; in experiment [3] (first compound 0.0128 µM), 1.16; in experiment [3] (first compound 0.04048 µM) it was 1.21; in experiment [3] (first compound 0.128 µM) it was 1.13; in experiment [3] (first compound 1.28 µM), 1.07. In addition, the relative viability in experiment [4] (first compound 0.01 µM) was determined as 0.993; in experiment [4] (first compound 0.03162 µM), 1.08; in experiment [4] (first compound 0.1 µM), 1.13; in experiment [4] (first compound 0.3162 µM), 1.02; in experiment [5] (first compound 0.0128 µM) it was 0.572; in experiment [5] (first compound 0.04048 µM), 0.557. The relative viability worked out at 1.11 in experiment [5] (first compound 0.128 µM) and 0.538 in experiment [5] (first compound 1.28 µM).

Take A-427: the relative viability in experiment [1] (first compound 0.01 µM) amounted to 0.961; in experiment [1] (first compound 0.03162 µM), 0.939; in experiment [1] (first compound 0.1 µM) it was 0.992; in experiment [1] (first compound 0.3162 µM), 0.899; in experiment [2] (first compound 0.01 µM) it was 0.949; in experiment [2] (first compound 0.03162 µM), 0.794. Also, the relative viability is 0.735 in experiment [2] (first compound 0.1 µM); 0.707 in experiment [2] (first compound 0.3162 µM); 1.04 in experiment [3] (first compound 0.0128 µM); 0.782 in experiment [3] (first compound 0.04048 µM); 0.935 in experiment [3] (first compound 0.128 µM); 0.96 in experiment [3] (first compound 1.28 µM). The relative viability was 0.486 in experiment [4] (first compound 0.01 µM); 0.566 in experiment [4] (first compound 0.03162 µM); 0.513 in experiment [4] (first compound 0.1 µM); 0.508 in experiment [4] (first compound 0.3162 µM); 0.652 in experiment [5] (first compound 0.0128 µM); 0.127 in experiment [5] (first compound 0.04048 µM). In addition, the relative viability in experiment [5] (first compound 0.128 µM) was 0.703; in experiment [5] (first compound 1.28 µM), 0.493.

On to NCI-H441, for which the relative viability in experiment [1] (first compound 0.01 µM) amounted to 0.477; in experiment [1] (first compound 0.03162 µM), 0.647; in experiment [1] (first compound 0.1 µM), 0.392; in experiment [1] (first compound 0.3162 µM) it was 0.442; in experiment [2] (first compound 0.01 µM), 0.778; in experiment [2] (first compound 0.03162 µM), 0.807. Moreover, the relative viability in experiment [2] (first compound 0.1 µM) was 0.596; in experiment [2] (first compound 0.3162 µM) it was 0.764; in experiment [3] (first compound 0.0128 µM) it was 0.591; in experiment [3] (first compound 0.04048 µM), 0.823; in experiment [3] (first compound 0.128 µM), 0.665; in experiment [3] (first compound 1.28 µM) it was 0.616. The relative viability in experiment [4] (first compound 0.01 µM) was found to be 0.265; in experiment [4] (first compound 0.03162 µM), 0.219; in experiment [4] (first compound 0.1 µM), 0.234; in experiment [4] (first compound 0.3162 µM) it was 0.189; in experiment [5] (first compound 0.0128 µM), 0.551; in experiment [5] (first compound 0.04048 µM), 0.43. Further, the values for the relative viability in experiment [5] (first compound 0.128 µM) and in experiment [5] (first compound 1.28 µM) were 0.602 and 0.421, respectively.

With NCI-H1703, the relative viability worked out at 0.427 in experiment [1] (first compound 0.01 µM); 0.256 in experiment [1] (first compound 0.03162 µM); 0.373 in experiment [1] (first compound 0.1 µM); 0.153 in experiment [1] (first compound 0.3162 µM); 0.73 in experiment [2] (first compound 0.01 µM); 0.569 in experiment [2] (first compound 0.03162 µM). The relative viability in experiment [2] (first compound 0.1 µM) is 0.684; in experiment [2] (first compound 0.3162 µM), 0.221; in experiment [3] (first compound 0.0128 µM), 0.286; in experiment [3] (first compound 0.04048 µM) it was 0.45; in experiment [3] (first compound 0.128 µM), 0.298; in experiment [3] (first compound 1.28 µM) it was 0.235. Also, the relative viability in experiment [5] (first compound 0.0128 µM) came to 0.235; in experiment [5] (first compound 0.04048 µM) it was 0.26; in experiment [5] (first compound 0.128 µM) it was 0.222; in experiment [5] (first compound 1.28 µM), 0.163.

NCI-H1792: the relative viability in experiment [1] (first compound 0.01 µM) came out at 0.943; in experiment [1] (first compound 0.03162 µM) it was 0.949; in experiment [1] (first compound 0.1 µM), 0.911; in experiment [1] (first compound 0.3162 µM) it was 0.949; in experiment [2] (first compound 0.01 µM), 0.947; in experiment [2] (first compound 0.03162 µM), 1.02. Further, the relative viability is 0.967 in experiment [2] (first compound 0.1 µM); 1.02 in experiment [2] (first compound 0.3162 µM); 1.03 in experiment [3] (first compound 0.0128 µM); 0.883 in experiment [3] (first compound 0.04048 µM); 0.948 in experiment [3] (first compound 0.128 µM); 0.67 in experiment [3] (first compound 1.28 µM). Besides, the relative viability in experiment [4] (first compound 0.01 µM) came out at 0.593; in experiment [4] (first compound 0.03162 µM) it was 0.709; in experiment [4] (first compound 0.1 µM) it was 0.635; in experiment [4] (first compound 0.3162 µM), 0.634; in experiment [5] (first compound 0.0128 µM), 0.237; in experiment [5] (first compound 0.04048 µM), 0.191. The relative viability was determined as 0.306 in experiment [5] (first compound 0.128 µM) and 0.354 in experiment [5] (first compound 1.28 µM).

On to Calu-6, for which the relative viability in experiment [1] (first compound 0.01 µM) came out at 0.934; in experiment [1] (first compound 0.03162 µM), 0.973; in experiment [1] (first compound 0.1 µM), 0.96; in experiment [1] (first compound 0.3162 µM), 0.791; in experiment [2] (first compound 0.01 µM), 0.685; in experiment [2] (first compound 0.03162 µM), 0.768. Further, the relative viability stood at 0.859 in experiment [2] (first compound 0.1 µM); 0.617 in experiment [2] (first compound 0.3162 µM); 1.04 in experiment [3] (first compound 0.0128 µM); 1.05 in experiment [3] (first compound 0.04048 µM); 0.869 in experiment [3] (first compound 0.128 µM); 0.754 in experiment [3] (first compound 1.28 µM). Further, the relative viability in experiment [5] (first compound 0.0128 µM) amounted to 0.916; in experiment [5] (first compound 0.04048 µM), 0.893; in experiment [5] (first compound 0.128 µM), 0.826; in experiment [5] (first compound 1.28 µM), 0.76.

Take SK-LU-1: the relative viability amounted to 1.15 in experiment [1] (first compound 0.01 µM); 1.31 in experiment [1] (first compound 0.03162 µM); 1.36 in experiment [1] (first compound 0.1 µM); 1.19 in experiment [1] (first compound 0.3162 µM); 0.913 in experiment [2] (first compound 0.01 µM); 0.948 in experiment [2] (first compound 0.03162 µM). Further, the relative viability in experiment [2] (first compound 0.1 µM) was 0.914; in experiment [2] (first compound 0.3162 µM), 0.584; in experiment [3] (first compound 0.0128 µM), 1.53; in experiment [3] (first compound 0.04048 µM) it was 1.22; in experiment [3] (first compound 0.128 µM), 1.17; in experiment [3] (first compound 1.28 µM) it was 0.783. Besides, the relative viability in experiment [4] (first compound 0.01 µM) was 0.404; in experiment [4] (first compound 0.03162 µM), 0.409; in experiment [4] (first compound 0.1 µM), 0.379; in experiment [4] (first compound 0.3162 µM), 0.399; in experiment [5] (first compound 0.0128 µM), 0.54; in experiment [5] (first compound 0.04048 µM) it was 0.488. Moreover, the relative viability in experiment [5] (first compound 0.128 µM) was 0.498; in experiment [5] (first compound 1.28 µM), 0.269.
